Measurements published in ChEMBL document CHEMBL2074490, “Transport and uptake of nateglinide in Caco-2 cells and its inhibitory effect on human monocarboxylate transporter MCT1” (Br J Pharmacol, 2002).

Target: Monocarboxylate transporter 1 (Homo sapiens) (UniProt P53985)
Assay: TP_TRANSPORTER: uptake in Xenopus laevis oocytes
Conditions: Oocyte

Monocarboxylate transporter 1 (Homo sapiens), sequence (P53985 whole entry, looked up): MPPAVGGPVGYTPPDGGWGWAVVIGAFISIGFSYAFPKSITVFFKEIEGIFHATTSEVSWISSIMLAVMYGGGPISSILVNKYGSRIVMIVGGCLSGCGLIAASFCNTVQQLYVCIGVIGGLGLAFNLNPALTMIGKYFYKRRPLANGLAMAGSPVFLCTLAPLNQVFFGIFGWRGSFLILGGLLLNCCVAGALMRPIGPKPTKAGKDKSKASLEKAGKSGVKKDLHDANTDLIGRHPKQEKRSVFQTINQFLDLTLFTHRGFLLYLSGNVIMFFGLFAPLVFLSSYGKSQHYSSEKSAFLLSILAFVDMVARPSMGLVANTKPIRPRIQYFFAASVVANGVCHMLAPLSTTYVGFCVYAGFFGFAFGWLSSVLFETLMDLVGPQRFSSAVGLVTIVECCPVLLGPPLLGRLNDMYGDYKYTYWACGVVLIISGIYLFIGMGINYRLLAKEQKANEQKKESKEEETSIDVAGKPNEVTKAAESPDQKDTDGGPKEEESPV

Activity: is not a substrate [-]
SMILES: CC(C)[C@H]1CC[C@H](C(=O)N[C@H](Cc2ccccc2)C(=O)O)CC1
